The values below come from US7326727B2, “Furanthiazole derivatives as heparanase inhibitors” (Oxford Glycosciences (UK) Ltd., priority 2002, dated 2008).

One assay concerns the target T1, human heparanase (Homo sapiens, UniProt Q9Y251).
T1 sequence (Q9Y251 158-543 limits assumed): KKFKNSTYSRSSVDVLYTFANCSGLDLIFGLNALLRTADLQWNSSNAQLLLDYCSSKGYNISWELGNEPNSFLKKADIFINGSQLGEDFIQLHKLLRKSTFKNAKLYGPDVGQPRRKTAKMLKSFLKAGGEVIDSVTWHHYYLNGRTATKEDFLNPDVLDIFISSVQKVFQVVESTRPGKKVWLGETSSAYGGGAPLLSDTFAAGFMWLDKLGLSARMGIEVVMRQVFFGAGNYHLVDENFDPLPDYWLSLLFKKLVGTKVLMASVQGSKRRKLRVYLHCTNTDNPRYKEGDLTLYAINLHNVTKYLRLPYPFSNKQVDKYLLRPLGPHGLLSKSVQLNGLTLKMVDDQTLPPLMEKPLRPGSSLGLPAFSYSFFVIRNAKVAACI
T1 sequence (Q9Y251 36-109 limits assumed): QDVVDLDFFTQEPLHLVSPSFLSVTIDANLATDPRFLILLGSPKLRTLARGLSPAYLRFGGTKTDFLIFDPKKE
Nature of the assay: Heparanase assay (bFGF binding to heparan sulphate, 96-well plate). The following applies: 2 h at 37° C., pH 5.5, read-out: Inhibition of Heparanase (IC50). In kind it is biochemical. As to the method:
Heparanase assay: The assay is based upon the use of the specific binding of basic fibroblast growth factor (bFGF) to heparan sulphate. Heparan sulphate can be detected via binding of bFGF using a horse radish peroxidase-conjugated bFGF antibody.
Nunc Maxisorp 96-well plates are coated for 16 h at RT with 100 μl/well 0.04 mg/ml heparan sulphate in PBS. The wells are then aspirated and blocked for 1 h with 200 μl/well 1% BSA-PBS. Following five washes with 0.01% BSA, 0.05% Tween20 PBS (wash buffer), 100 μl of recombinant human basic FGF (90 ng/ml in 0.1% BSA/PBS) is added per well and the plate is incubated at room temperature for 1 h.
After a further five washes with the wash buffer, 10 μl of test compound (in 10% DMSO) and 90 μl of human heparanase in 100 mM Sodium acetate, 5 mM CaCl2, pH 5.5 are added to each well and the plate incubated for 2 h at 37° C. The wells are washed again with wash buffer and 100 μl of bFGF antibody-horse radish peroxidase conjugate added. The plate is incubated at room temperature for 1 h and washed again five times with wash buffer. 100 μl of TMB peroxidase substrate is added and the colour allowed to develop for 10 min. The reaction is stopped with 50 μl 1M H2SO4 and the colour read at 450 nm on a plate reader.
For “2-[4-[5-[2-Chloro-4-[3-(3,5-bistrifluoromethyl)phenylacryloylamino]phenyl]furan-2-yl]-1,3-thiazol-2-yl]acetic acid [Example 7]”, the IC50 (commonly the concentration at which inhibition is half-maximal) was 400 nM.
On the same count and under the same terms, the result for `O=C(O)Cc1nc(-c2ccc(-c3ccc(NC(=O)c4cc5ccccc5s4)cc3Cl)o2)cs1` [Example 11, 2-[4-[5-[2-Chloro-4-[(benzothiophene-2-carbonyl)amino]phenyl]furan-2-yl]-1,3-thiazol-2-yl]acetic acid] reads 400 nM; that for `COc1cccc(C(=O)Nc2ccc(-c3ccc(-c4csc(CC(=O)O)n4)o3)c(Cl)c2)c1` [Example 21, 2-[4-[5-[2-Chloro-4-[(3-methoxyphenylcarbonyl)amino]phenyl]furan-2-yl]-1,3-thiazol-2-yl]acetic acid], 7000 nM.

The test system of another assay is human endothelial cells. Briefly: Angiogenesis assay (AngioKit, tubule formation by PECAM-1 staining). Format: cell-based. The following applies: Endothelial cell, 264 h, AngioKit co-culture, tubule formation on day 11, PECAM-1 staining relative to untreated control. From the text: Angiogenesis Assay: A commercial angiogenesis assay for analysing the angiogenic or anti-angiogenic properties of test compounds (AngioKit catalogue no. ZHA-1000, TCS CellWorks Ltd, Buckingham, U.K) was used. In this assay, human endothelial cells were co-cultured with other human cells in a specifically designed medium. The endothelial cells initially form small islands within the culture matrix. They subsequently proliferate and then enter a migratory phase during which they move through the matrix to form threadlike tubule structures. These gradually join up (by 12-14 days) to form networks of […] tubules which closely resemble a capillary bed structure. These tubules stain positive for von Willebrand's Factor, Platelet Endothelial Cell Adhesion Molecule-1 (PECAM-1 or CD31) and Intercellular Adhesion Molecule-2 (ICAM-2).
The assay is supplied as growing cultures at the earliest stage of tubule formation in a 24 well plate format. It is designed so that test compounds and conditioned media can be added to the cultures within individual wells. The resulting effect on tubule formation can then be monitored. Positive and negative test agents are provided in the kit, e.g. Vascular Endothelial Growth Factor (VEGF) and sumarin. All reagents were included as part of the kit and the assay was performed according to the protocol supplied by TCS CellWorks Ltd. Briefly, on day 1, fresh growth medium, medium plus control agent or medium plus test compound was added to the cells and the cultures were incubated at 37° C., 5% CO2. […] The specified medium was changed at days 4, 7 and 9 and the cells were monitored for growth. On day 11, the cells were washed with Dulbecco's Phosphate-Buffered Saline (PBS) and fixed using 70% ethanol (−20° C.) for 30 min at room temperature. After fixing, the cells were washed and treated with blocking buffer, 1% BSA in PBS. The cells were stained for PECAM-1 on the same day, following standard immunohistochemistry procedures well known to those skilled in the art, using mouse anti-human CD31 as the primary antibody and a goat anti-mouse IgG alkaline […] conjugate. Tubule formation was quantitatively assessed by measuring PECAM-1 positive staining using the image analysis program “Matrox inspector” to evaluate the percentage tubule staining relative to an untreated control.
In the case of `O=C(O)Cc1nc(-c2ccc(-c3ccc(NC(=O)c4ccc(OC(F)(F)F)cc4)cc3)o2)cs1` [Example 4], the IC50 was 200 nM.
Take `O=C(O)Cc1nc(-c2ccc(-c3ccc(NC(=O)/C=C/c4ccc(Br)cc4)cc3Cl)o2)cs1` [Example 5, 2-[4-[5-[2-Chloro-4-[3-(4-bromo)phenylacryloylamino]phenyl]furan-2-yl]-1,3-thiazol-2-yl]acetic acid]: the IC50 was 1000 nM.
On the same count and under the same terms, as for `O=C(O)Cc1nc(-c2ccc(-c3ccc(NC(=O)/C=C/c4ccc(Cl)cc4Cl)cc3Cl)o2)cs1` [Example 6, 2-[4-[5-[2-Chloro-4-[3-(2,4-dichloro)phenylacryloylamino]phenyl]furan-2-yl]1,3-thiazol-2-yl]acetic acid], the figure is 500 nM; as for `O=C(O)Cc1nc(-c2ccc(-c3ccc(NC(=O)C=Cc4ccccc4)cc3Cl)o2)cs1` [Example 8, 2-[4-[5-[2-Chloro-4-(3-phenylacryloylamino)phenyl]furan-2-yl]-1,3-thiazol-2-yl]acetic acid], 15000 nM.
On the same count and under the same terms, the result for `O=C(O)Cc1nc(-c2ccc(-c3ccc(NC(=O)c4cc5ccccc5s4)cc3Cl)o2)cs1` [Example 11, 2-[4-[5-[2-Chloro-4-[(benzothiophene-2-carbonyl)amino]phenyl]furan-2-yl]-1,3-thiazol-2-yl]acetic acid] reads 20000 nM.
The same measure, in the same setting: the result for `O=C(O)Cc1nc(-c2ccc(-c3ccc(NC(=O)c4ccc(Cl)c(Cl)c4)cc3Cl)o2)cs1` [Example 18, 2-[4-[5-[2-Chloro-4-[(3,4-dichlorophenylcarbonyl)amino]phenyl]furan-2-yl]-1,3-thiazol-2-yl]acetic acid] reads 10000 nM.
With `O=C(O)Cc1nc(-c2ccc(-c3ccc(NC(=O)c4ccc(OC(F)(F)F)cc4)cc3Cl)o2)cs1` [Example 22, 2-[4-[5-[2-Chloro-4-[(4-trifluoromethoxyphenylcarbonyl)amino]phenyl]furan-2-yl]-1,3-thiazol-2-yl]acetic acid], the IC50 was found to be 500 nM.
